Laboratory results: ChEMBL document CHEMBL1201862, “PubChem BioAssay data set” (2004)
Active and inactive are the calls of the source.

Key:
[1] = biological target: G2/mitotic-specific cyclin-B1 (Homo sapiens, UniProt P14635); experiment: Counterscreen assay for inhibitors of Wee1 degradation: dose response cell-based assay to identify inhibitors of cyclin B degradation. [Related pubchem assays: 1410, 1321 ]; type: functional
[2] = biological target: Wee1-like protein kinase (Homo sapiens, UniProt P30291); experiment: Dose Response Cell-based Assay for Inhibitors of Wee1 Degradation. [Related pubchem assays: 1410, 1321 ]; type: functional
[3] = Luminescence Cell-Based Dose Confirmation HTS to Identify Inhibitors of Polyadenylation.; type: functional
[4] = system: BJ; experiment: growth inhibition of engineered Ras-driven BJ cells – cell-based, alamar blue fluorescence, cherrypicked samples, dose response (AID 2631); type: functional; settings: Homo sapiens;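 further: confirmatory dose-response assay in RAS-dependent BJ fibroblasts engineered with TERT, LT and ST, with cytotoxicity read by fluorescence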
[5] = cells; type: functional, cell-based
[6] = system: HEK293; experiment: Fluorescence-based counterscreen for potentiators or agonists of NPY-Y2: cell-based high-throughput dose response assay to identify inhibitors of cyclic nucleotide gated ion channel (CNGC) activity. In this assay, the parental HEK293 cell line transfected with a cyclic-nucleotide gated ion channel (CNGC)-based cAMP sensor is used to measure inhibition of isoproterenol-induced CNGC activity by test compound.; type: functional; settings: Homo sapiens;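 further: stimulus is 1 µM isoproterenol at EC100 plus PDE inhibitor Ro 20-1724 at 25 µM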
[7] = biological target: T1, DNA repair protein RAD52 homolog (Homo sapiens, UniProt P43351); type: functional, biochemical
T1 sequence (P43351 whole entry): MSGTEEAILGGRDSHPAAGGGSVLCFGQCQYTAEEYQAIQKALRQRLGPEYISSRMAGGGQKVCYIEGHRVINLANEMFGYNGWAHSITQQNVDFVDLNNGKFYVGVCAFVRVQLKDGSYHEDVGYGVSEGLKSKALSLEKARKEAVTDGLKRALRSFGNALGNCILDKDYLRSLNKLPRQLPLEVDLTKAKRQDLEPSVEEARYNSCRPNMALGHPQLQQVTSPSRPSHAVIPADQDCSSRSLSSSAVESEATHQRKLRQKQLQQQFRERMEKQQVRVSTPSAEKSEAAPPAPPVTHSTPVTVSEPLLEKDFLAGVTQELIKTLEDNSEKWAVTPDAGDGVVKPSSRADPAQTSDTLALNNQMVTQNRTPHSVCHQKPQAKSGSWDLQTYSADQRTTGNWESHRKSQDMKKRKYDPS

[8] = cells; type: functional, cell-based; remark: listed apart in the source
[9] = system: Streptococcus sp. 'group A'; experiment: Streptococcus pyogenes SK(-)GAS viability under kanamycin – luminescence, BacTiterGlo, confirmation, counter-screen for streptokinase expression inhibitor project, dose response (AID 1900); type: functional, organism-based
[10] = biological target: Neuropeptide Y receptor type 2 (Homo sapiens, UniProt P49146); experiment: Fluorescence-based cell-based high-throughput dose response assay for agonists of NPY-Y2. [Related pubchem assays: 1703 (Screening assay (CNGC inhibitors).), 1359 (Screening assay (NPY-Y2 potentiators or agonists).), 1304 (Screening assay (NPY-Y1 potentiators or agonists).), 1710 (Screening assay (NPY-Y2 agonists).), 1791 (Summary AID.)]; type: functional
[11] = biological target: T2, Streptokinase A (Streptococcus pyogenes serotype M1, UniProt P10520); experiment: viability-normalized secreted streptokinase activity reduction – plasminogen activation absorbance, OD405, dose response (AID 1914); type: functional, Streptococcus pyogenes M1 GAS;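 further: secreted streptokinase activity via plasminogen activation per viability signal from cell pellet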
T2 sequence (P10520 whole entry): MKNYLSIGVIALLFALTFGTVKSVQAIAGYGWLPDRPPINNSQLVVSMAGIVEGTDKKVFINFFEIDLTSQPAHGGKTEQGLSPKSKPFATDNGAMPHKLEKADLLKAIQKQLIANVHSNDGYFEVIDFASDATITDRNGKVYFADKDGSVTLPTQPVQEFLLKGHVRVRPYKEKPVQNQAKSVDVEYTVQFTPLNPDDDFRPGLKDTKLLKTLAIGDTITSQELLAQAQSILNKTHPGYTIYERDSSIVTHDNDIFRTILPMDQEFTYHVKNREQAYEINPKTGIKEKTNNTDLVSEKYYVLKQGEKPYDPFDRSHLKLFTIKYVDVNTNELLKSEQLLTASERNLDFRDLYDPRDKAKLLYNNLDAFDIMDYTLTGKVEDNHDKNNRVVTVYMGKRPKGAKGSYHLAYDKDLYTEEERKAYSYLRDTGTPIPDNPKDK

[12] = biological target: Neuropeptide Y receptor type 1 (Homo sapiens, UniProt P25929); experiment: Fluorescence-based counterscreen for agonists of NPY-Y2: cell-based high-throughput dose response assay for agonists of NPY-Y1.; type: functional
[13] = system: INS1; experiment: INS-1E survival protection against cytokine death – cell-based, luminescence, retest, dose response (AID 449756); type: functional; settings: Rattus norvegicus;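 further: cell death triggered by IL-1 beta plus TNF-alpha plus IFN-gamma mixture; protective hits raise ATP signal compared with cytokine alone wells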
[14] = system: Streptococcus; experiment: GAS UMAA2166 growth inhibition – luminescence, BacTiterGlo, counter-screen for streptokinase expression inhibitor project, dose response (AID 1915); type: functional, organism-based;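 further: potency for reduction of bacterial viability or growth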
[15] = biological target: T3, Bcl-2-related protein A1 (Mus musculus, UniProt Q07440); experiment: small-molecule antagonists of Bfl-1/BH3 interaction – biochemical, TR-FRET, mouse Bfl-1, confirmation (AID 621);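 further: TR-FRET binding of GST-Bfl-1 to FITC-labelled Bid peptide via terbium antibody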
T3 sequence (Q07440 whole entry): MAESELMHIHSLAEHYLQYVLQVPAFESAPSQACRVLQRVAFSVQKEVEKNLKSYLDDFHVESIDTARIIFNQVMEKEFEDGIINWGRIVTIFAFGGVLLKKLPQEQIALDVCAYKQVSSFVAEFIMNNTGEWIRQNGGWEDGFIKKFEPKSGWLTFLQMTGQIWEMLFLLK

[16] = biological target: T3, Bcl-2-related protein A1; experiment: Bfl-1 binding inhibitors, SAR follow-up, biochemical, fluorescence polarization (AID 1070)
[17] = biological target: T4, Estrogen receptor (Homo sapiens, UniProt P03372);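 further: potency for inhibiting coactivator peptide recruitment to the receptor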
T4 sequence (P03372 whole entry): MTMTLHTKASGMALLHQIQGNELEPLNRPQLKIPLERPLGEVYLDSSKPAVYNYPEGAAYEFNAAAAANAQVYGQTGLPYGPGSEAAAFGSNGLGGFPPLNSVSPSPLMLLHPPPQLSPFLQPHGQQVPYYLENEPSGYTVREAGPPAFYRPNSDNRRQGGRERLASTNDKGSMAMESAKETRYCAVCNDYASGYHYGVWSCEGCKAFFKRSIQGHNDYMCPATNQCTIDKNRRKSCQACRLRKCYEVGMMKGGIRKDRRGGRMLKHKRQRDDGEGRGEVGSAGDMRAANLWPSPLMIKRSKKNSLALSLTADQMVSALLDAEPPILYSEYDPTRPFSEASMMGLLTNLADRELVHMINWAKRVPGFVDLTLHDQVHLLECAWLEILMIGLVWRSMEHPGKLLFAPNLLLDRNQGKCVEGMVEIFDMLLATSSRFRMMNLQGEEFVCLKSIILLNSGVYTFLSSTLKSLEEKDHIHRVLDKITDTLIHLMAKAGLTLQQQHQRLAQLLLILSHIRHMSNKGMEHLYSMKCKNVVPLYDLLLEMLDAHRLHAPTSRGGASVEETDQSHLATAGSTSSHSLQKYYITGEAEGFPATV

Sequence of G2/mitotic-specific cyclin-B1 (P14635 whole entry): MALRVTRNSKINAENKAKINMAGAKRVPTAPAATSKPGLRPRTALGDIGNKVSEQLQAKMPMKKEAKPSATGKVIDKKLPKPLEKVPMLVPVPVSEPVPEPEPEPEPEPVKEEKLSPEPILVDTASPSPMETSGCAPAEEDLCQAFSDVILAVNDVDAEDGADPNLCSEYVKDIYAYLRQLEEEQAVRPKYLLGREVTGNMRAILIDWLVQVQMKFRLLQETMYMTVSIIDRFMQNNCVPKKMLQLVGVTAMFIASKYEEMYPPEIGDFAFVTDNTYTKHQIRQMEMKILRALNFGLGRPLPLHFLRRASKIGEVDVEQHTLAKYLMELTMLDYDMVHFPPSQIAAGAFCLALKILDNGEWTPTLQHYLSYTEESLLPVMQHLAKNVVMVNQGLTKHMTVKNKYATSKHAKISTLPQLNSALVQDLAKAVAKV
Sequence of Wee1-like protein kinase (P30291 whole entry): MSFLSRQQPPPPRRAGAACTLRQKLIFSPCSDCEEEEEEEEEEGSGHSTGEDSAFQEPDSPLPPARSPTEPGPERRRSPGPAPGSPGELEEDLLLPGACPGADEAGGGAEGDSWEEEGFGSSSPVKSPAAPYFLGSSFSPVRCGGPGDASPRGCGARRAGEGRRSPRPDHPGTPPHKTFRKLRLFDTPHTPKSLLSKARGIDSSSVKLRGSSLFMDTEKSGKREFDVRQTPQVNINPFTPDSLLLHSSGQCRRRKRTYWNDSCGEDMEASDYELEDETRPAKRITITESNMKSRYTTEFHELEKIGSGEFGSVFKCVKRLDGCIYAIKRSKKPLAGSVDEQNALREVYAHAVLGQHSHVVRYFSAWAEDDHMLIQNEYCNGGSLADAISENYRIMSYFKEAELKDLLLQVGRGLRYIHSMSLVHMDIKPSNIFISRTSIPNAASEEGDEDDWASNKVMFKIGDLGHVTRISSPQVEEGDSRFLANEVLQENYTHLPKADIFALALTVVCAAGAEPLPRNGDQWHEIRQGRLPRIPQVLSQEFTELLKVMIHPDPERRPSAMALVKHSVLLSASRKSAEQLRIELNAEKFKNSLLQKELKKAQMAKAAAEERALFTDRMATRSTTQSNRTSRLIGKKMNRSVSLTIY
Sequence of Neuropeptide Y receptor type 2 (P49146 whole entry): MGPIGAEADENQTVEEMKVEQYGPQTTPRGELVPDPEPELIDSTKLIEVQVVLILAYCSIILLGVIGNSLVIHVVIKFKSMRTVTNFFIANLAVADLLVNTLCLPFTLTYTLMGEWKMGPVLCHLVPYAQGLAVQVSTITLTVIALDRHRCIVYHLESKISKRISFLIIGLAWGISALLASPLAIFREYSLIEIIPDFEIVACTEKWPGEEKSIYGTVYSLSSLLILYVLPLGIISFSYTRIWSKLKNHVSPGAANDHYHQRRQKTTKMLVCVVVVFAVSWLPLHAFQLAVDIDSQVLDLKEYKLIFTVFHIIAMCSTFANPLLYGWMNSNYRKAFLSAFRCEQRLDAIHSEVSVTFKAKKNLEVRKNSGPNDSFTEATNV
Sequence of Neuropeptide Y receptor type 1 (P25929 whole entry): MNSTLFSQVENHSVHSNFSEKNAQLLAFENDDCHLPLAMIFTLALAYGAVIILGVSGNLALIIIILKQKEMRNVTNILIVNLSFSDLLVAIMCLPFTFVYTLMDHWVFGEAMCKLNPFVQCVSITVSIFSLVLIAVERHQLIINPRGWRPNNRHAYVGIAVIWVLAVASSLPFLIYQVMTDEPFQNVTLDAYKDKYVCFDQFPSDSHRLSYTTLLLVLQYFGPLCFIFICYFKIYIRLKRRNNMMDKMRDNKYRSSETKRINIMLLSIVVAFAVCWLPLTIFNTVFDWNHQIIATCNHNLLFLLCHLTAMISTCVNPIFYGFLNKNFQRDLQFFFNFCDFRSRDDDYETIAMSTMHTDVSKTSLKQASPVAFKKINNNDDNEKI

For COc1cccc(/C=N/NC(=O)c2cc3c(OC)c(OC)ccc3[nH]2)c1OC, the EC50 [1] was > 49.7 µM (not active) and the EC50 [2] was > 49.7 µM (not active).
In the case of O=C(O)c1ccc(SCc2cnc(Cl)s2)cc1, the EC50 [3] is reported as > 120 µM (not active).
In the case of Cc1sc2cc3c(c(C(=O)c4ccccc4)[n+]2c1C)-c1cccc2cccc-3c12, the EC50 [4] is reported as 30.6 µM (active), the EC50 [5] is reported as > 350 µM (not active) and the EC50 [6] is reported as 12.3 µM (not active). The AC50 [7] was 1.43 µM (active), the EC50 [8] was > 350 µM (not active) and the EC50 [9] was 6.52 µM (active). The EC50 [10] was 11.5 µM (not active), the EC50 [11] was 31.9 µM (active) and the EC50 [12] was 8.19 µM (active). For the same compound, the AC50 [13] was 1.91 µM (active) and the EC50 [14] was 23.5 µM (active).
For C[C@@H]1CN(C2=C(Cl)C(=O)N(c3ccc(Cl)c(Cl)c3)C2=O)CCN1, the IC50 [15] was 1.03 µM (active) and the IC50 [16] was 1.16 µM (active).
In the case of CCCc1cc(-n2ccnc2)n2c(nc3ccccc32)c1C#N, the IC50 [17] is reported as 29.8 µM (active).
